Experimental data published in PubChem BioAssay AID256 (DTP/NCI, 2004).
“And” between values parts separate entries of the source, which are not always exact repeats. Equal values may be shown once. Inconclusive results and toxic doses are left out. The calls were made as follows: active = survival T/C of 150% or more; inactive = T/C below 125% in these data.

System: CD2F1 mice, L1210 leukemia ip, survival T/C
Experiment: NCI In Vivo Anticancer Drug Screen. Data for tumor model L1210 Leukemia (intraperitoneal) in CD2F1 (CDF1) mice
Conditions: endpoint: mean survival time, higher = longer survival
Outline: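 Activity against a transplanted murine tumor was judged by comparing the compound group with a vehicle group. The outcome in the treated animals was divided by that in the controls.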

[1] = dose: 100.0 mg/kg/injection, schedule: Q01DX001 (ip), vehicle: saline with Tween-80
[2] = dose: 100.0 mg/kg/injection, schedule: Q01DX009 (ip), vehicle: saline with Tween-80
[3] = dose: 200.0 mg/kg/injection, schedule: Q01DX001 (ip), vehicle: saline with Tween-80
[4] = dose: 200.0 mg/kg/injection, schedule: Q01DX009 (ip), vehicle: saline with Tween-80
[5] = dose: 400.0 mg/kg/injection, schedule: Q01DX001 (ip), vehicle: saline with Tween-80
[6] = dose: 400.0 mg/kg/injection, schedule: Q01DX009 (ip), vehicle: saline with Tween-80
[7] = dose: 100.0 mg/kg/injection, schedule: Q04DX003 (ip), vehicle: saline with Tween-80
[8] = dose: 200.0 mg/kg/injection, schedule: Q04DX003 (ip), vehicle: saline with Tween-80
[9] = dose: 400.0 mg/kg/injection, schedule: Q04DX003 (ip), vehicle: saline with Tween-80
[10] = dose: 50.0 mg/kg/injection, schedule: Q01DX009 (ip), vehicle: saline with Tween-80
[11] = dose: 50.0 mg/kg/injection, schedule: Q01DX009 (ip), vehicle: saline
[12] = dose: 100.0 mg/kg/injection, schedule: Q01DX001 (ip), vehicle: saline
[13] = dose: 200.0 mg/kg/injection, schedule: Q01DX001 (ip), vehicle: saline

Measured: T/C

CCOC(=O)C(=NN)C(=O)OCC
inactive: [1] 97 % of control | [2] 96 % of control | [3] 105 % of control | [4] 101 % of control | [5] 102 % of control | [6] 93 % of control

C=NNC(=O)c1ccncc1
inactive: [2] 100 % of control | [4] 101 % of control | [6] 95 % of control

C=CCC(C)(C#N)C1C=CCC1 (configuration not stated)
inactive: [2] 105 % of control | [7] 102 % of control | [4] 102 % of control | [8] 100 % of control | [6] 103 % of control | [9] 93 % of control

NCCNc1ccc(NCCN)c2c1C(=O)c1ccccc1C2=O
active: dose: 2.0 mg/kg/injection, schedule: Q01DX009 (ip), vehicle: acid diluted with saline 159 % of control | dose: 4.0 mg/kg/injection, schedule: Q01DX009 (ip), vehicle: acid diluted with saline 175 % of control | dose: 6.25 mg/kg/injection, schedule: Q01DX009 (ip), vehicle: distilled water + Tween-80 156 % of control | dose: 8.0 mg/kg/injection, schedule: Q01DX009 (ip), vehicle: acid diluted with saline 345 % of control | dose: 12.5 mg/kg/injection, schedule: Q01DX009 (ip), vehicle: distilled water + Tween-80 227 % of control | dose: 25.0 mg/kg/injection, schedule: Q01DX009 (ip), vehicle: distilled water + Tween-80 272 % of control
inactive: dose: 16.0 mg/kg/injection, schedule: Q01DX009 (ip), vehicle: acid diluted with saline 98 % of control

C=CCOCC(COCC=C)OC1CCS(=O)(=O)C1 (configuration not stated)
inactive: [10] 101 % of control | [2] 97 % of control | [4] 93 % of control

CCC(CC)C(O)C(C)C(C)O (configuration not stated)
inactive: [2] 91 % of control | [4] 91 % of control | [6] 91 % of control

COc1cc(/C=C/C=C/C(=O)N2CCCCC2)ccc1O
inactive: dose: 12.5 mg/kg/injection, schedule: Q01DX009 (ip), vehicle: saline with Tween-80 97 % of control | dose: 25.0 mg/kg/injection, schedule: Q01DX009 (ip), vehicle: saline with Tween-80 100 % of control | [10] 113 % of control

NC(=O)/C=C/C(N)=O
inactive: [2] 98 % of control | [4] 98 % of control

Cc1ccc(S(=O)(=O)N(O)c2ccccc2)cc1
inactive: [7] 100 % of control | [8] 100 % of control | [9] 103 % of control

C/C=C(\C)C(=O)N/N=C\c1cc(Cl)cc(Cl)c1O
inactive: dose: 12.5 mg/kg/injection, schedule: Q01DX009 (ip), vehicle: olive oil, sesame oil, peanut oil 100 % of control | dose: 25.0 mg/kg/injection, schedule: Q01DX009 (ip), vehicle: olive oil, sesame oil, peanut oil 96 % of control | dose: 50.0 mg/kg/injection, schedule: Q01DX009 (ip), vehicle: olive oil, sesame oil, peanut oil 94 % of control | dose: 100.0 mg/kg/injection, schedule: Q01DX009 (ip), vehicle: olive oil, sesame oil, peanut oil 98 % of control | dose: 200.0 mg/kg/injection, schedule: Q01DX009 (ip), vehicle: olive oil, sesame oil, peanut oil 98 % of control | dose: 400.0 mg/kg/injection, schedule: Q01DX009 (ip), vehicle: olive oil, sesame oil, peanut oil 100 % of control

CCN(CC)CCNC(=O)C(O)(c1ccccc1)c1ccccc1
inactive: [11] 98 % of control | dose: 100.0 mg/kg/injection, schedule: Q01DX009 (ip), vehicle: saline 103 % of control

CCCCNCCC#N
inactive: [7] 102 % of control | [8] 95 % of control | [9] 98 % of control

CC([NH-])C(=O)O.CC([NH-])C(=O)O.CC([NH-])C(=O)O.[Co+3] (configuration not stated)
inactive: dose: 6.25 mg/kg/injection, schedule: Q01DX009 (ip), vehicle: saline 98 % of control | dose: 12.5 mg/kg/injection, schedule: Q01DX009 (ip), vehicle: saline 112 % of control | dose: 25.0 mg/kg/injection, schedule: Q01DX009 (ip), vehicle: saline 107 % of control | [11] 124 % of control

O=[N+]([O-])c1ccccc1SSc1ccccc1[N+](=O)[O-]
inactive: [7] 97 % of control | [8] 95 % of control | [9] 104 % of control

COc1ccc(/C=N\NC(=O)CCCCCCCCC(=O)N/N=C\c2ccc(OC)c(O)c2)cc1O
inactive: [10] 97 % of control | [2] 97 % of control | [4] 105 % of control

CS(=O)(=O)OCCN(CCOS(C)(=O)=O)c1ccc([N+](=O)[O-])cc1
inactive: dose: 12.5 mg/kg/injection, schedule: Q01DX010 (ip), vehicle: saline 100 % of control | dose: 25.0 mg/kg/injection, schedule: Q01DX010 (ip), vehicle: saline 100 % of control | dose: 50.0 mg/kg/injection, schedule: Q01DX010 (ip), vehicle: saline 115 % of control | dose: 100.0 mg/kg/injection, schedule: Q01DX010 (ip), vehicle: saline 106 % of control

O=C1c2ccccc2C(=O)N1CO
inactive: [1] 108 % of control | [2] 101 % of control | [3] 106 % of control | [4] 97 % of control | [5] 104 % of control | [6] 101 % of control

CCCCCCCCC(C(=O)c1ccccc1)=C(C(F)(F)F)C(F)(F)F
inactive: [2] 91 % of control

CCOC(=O)C(CC1OCCO1)C1=NC(C)(C)CC(C)O1 (configuration not stated)
inactive: dose: 100.0 mg/kg/injection, schedule: Q01DX001 (ip), vehicle: acetone 93 % of control | dose: 200.0 mg/kg/injection, schedule: Q01DX001 (ip), vehicle: acetone 94 % of control

CCOC(=O)C(F)(C(=O)OCC)[N+](=O)[O-]
inactive: dose: 50.0 mg/kg/injection, schedule: Q04DX003 (ip), vehicle: saline 102 % of control | [12] 101 % of control | dose: 100.0 mg/kg/injection, schedule: Q04DX003 (ip), vehicle: saline 100 % of control | [13] 104 % of control | dose: 200.0 mg/kg/injection, schedule: Q04DX003 (ip), vehicle: saline 88 % of control

Cc1cc([N+](=O)[O-])ccc1P(=O)(O)O
inactive: [11] 88 % of control

CC1=Nc2ccccc2N=C(C)C1
inactive: dose: 50.0 mg/kg/injection, schedule: Q01DX009 (ip), vehicle: acetone 101 % of control | dose: 100.0 mg/kg/injection, schedule: Q01DX009 (ip), vehicle: acetone 98 % of control

[I][Ni][I].c1ccc([PH+](c2ccccc2)c2ccccc2)cc1.c1ccc([PH+](c2ccccc2)c2ccccc2)cc1
inactive: dose: 100.0 mg/kg/injection, schedule: Q04DX002 (ip), vehicle: saline with Tween-80 87 % of control | dose: 200.0 mg/kg/injection, schedule: Q04DX002 (ip), vehicle: saline with Tween-80 91 % of control | dose: 400.0 mg/kg/injection, schedule: Q04DX002 (ip), vehicle: saline with Tween-80 87 % of control

Cc1c(NC(=O)Nc2cc([N+](=O)[O-])ccc2Cl)c(=O)n(-c2ccccc2)n1C
inactive: [12] 96 % of control | [2] 89 % of control and 98 % of control | dose: 100.0 mg/kg/injection, schedule: Q04DX002 (ip), vehicle: saline 93 % of control and 107 % of control | [7] 104 % of control | [13] 86 % of control | [4] 96 % of control and 102 % of control | dose: 200.0 mg/kg/injection, schedule: Q04DX002 (ip), vehicle: saline 95 % of control and 96 % of control | [8] 104 % of control | dose: 400.0 mg/kg/injection, schedule: Q01DX001 (ip), vehicle: saline 86 % of control | [6] 96 % of control | dose: 400.0 mg/kg/injection, schedule: Q04DX002 (ip), vehicle: saline 91 % of control and 107 % of control | [9] 95 % of control

COc1ccccc1C(=O)C(=O)c1ccccc1OC
inactive: [7] 100 % of control | [8] 96 % of control | [9] 100 % of control

Oc1ccccc1/C=N/c1nc(-c2ccccc2)cs1.[Co].[O-]c1ccccc1/C=N/c1nc(-c2ccccc2)cs1
inactive: [3] 86 % of control | [5] 89 % of control

CN(C)CCOCCOc1ccc(C(C)(C)CC(C)(C)C)cc1
inactive: dose: 1.5 mg/kg/injection, schedule: Q01DX009 (ip), vehicle: saline with Tween-80 105 % of control | dose: 3.0 mg/kg/injection, schedule: Q01DX009 (ip), vehicle: saline with Tween-80 97 % of control | dose: 6.0 mg/kg/injection, schedule: Q01DX009 (ip), vehicle: saline with Tween-80 100 % of control

Cc1c(N=NN(C)C)cc[n+]([O-])c1C
inactive: dose: 11.0 mg/kg/injection, schedule: Q01DX009 (ip), vehicle: water 121 % of control
active: dose: 25.0 mg/kg/injection, schedule: Q01DX009 (ip), vehicle: water 157 % of control | dose: 37.5 mg/kg/injection, schedule: Q01DX009 (ip), vehicle: water 159 % of control

CCCCCCC(=O)O.[Pb]
inactive: dose: 75.0 mg/kg/injection, schedule: Q01DX001 (ip), vehicle: other 107 % of control | dose: 150.0 mg/kg/injection, schedule: Q01DX001 (ip), vehicle: other 97 % of control | dose: 300.0 mg/kg/injection, schedule: Q01DX001 (ip), vehicle: other 103 % of control
